Results taken from patent US9340616B2, “Methods and compositions for heptameric targeting ligands” (The University of North Carolina at Chapel Hill, priority 2011, dated 2016).

Legend:
[1] = tested on: HER2-positive SK-OV3 cells; assay: MTS cell proliferation assay, SK-OV3; type: cell-based; settings: 10 μM, 24 h, positive control
Method: (§1) FIGS. 10A-C. Cellular toxicity of heptameric molecules. A) A431 (EGFR), B) SK-OV3 (HER2), and C) LNCaP cells were incubated with 1 uM of each of the heptamer molecules for 24 hours at 37° C. Cisplatin (10 uM) was also incubated with each of the cells as a positive control. Cells without incubation with any proteins or cisplatin were used as a negative control.
(§2) A CellTiter96 Aqueous Non-Radioactive Cell Proliferation Assay kit from Promega (Madison, Wis.) was used for MTS assay. Approximately 10^4 cells were seeded on each well in a 96-well plate and grown for 16 hours at 37° C. Each heptameric molecule was incubated with the cells for 24 hours and Cis-platinum (II) diamine dichloride (cisplatin, CDDP) (Sigma-Aldrich Chemical Co) was used as positive control. 20 μl of MTS/PMS solution was added into each well followed by incubation for 4 hours at 37° C. The absorbance at 490 nm was recorded using an ELISA plate reader.
(§3) A CellTiter96 Aqueous Non-Radioactive Cell Proliferation Assay kit from Promega (Madision, Wis.) was used for the MTS assay. Approximately 1×10^4 cells were seeded in each well of a 96-well plate and grown for 16 h at 37° C. Each heptameric molecule was incubated with the cells for 24 h. 10 μM Cis-platinum (II) diamine dichloride (Sigma-Aldrich Chemical Co, St Louis, Mo.) was used as a positive control. […] The absorbance at 490 nm was recorded using an ELISA plate reader.

EGFR-positive A431 cells = assay: MTS cell proliferation assay, A431; type: cell-based; settings: 10 μM, 24 h, positive control
Method: as §1, §2, §3

N.N.[Cl][Pt][Cl] [cisplatin, Cis-platinum (II) diamine dichloride]
cell proliferation inhibited to [1]: 50% | cell proliferation inhibited to (EGFR-positive A431 cells): 50%
